Measured values published in US7919274B2, “Light-emitting fusion proteins and diagnostic and therapeutic methods therefor” (Dana-Farber Cancer Institute, Inc., priority 2001, dated 2011).
Ends that are not written are not given here.

Assays:
HA-pVHL bound HIF = molecular target: T1, HA-pVHL bound HIF (Homo sapiens, UniProt P40337); test: Peptide elution of HIF coimmunoprecipitated with HA-pVHL from ts20 cells; format: binding; conditions: 7 μg peptide in 65 μl PBS
T1 construct: expressed in transfected cells; host or cells: ts20 cells stably transfected with pIRES-HA-VHL, G418-selected
Experimental: Individual G418-resistant colonies were isolated using cloning cylinders and expanded. Cells producing HA-VHL or HA-VHL (Y98H) were identified by anti-HA immunoblot analysis. […] For the tests shown in FIG. 5C, ts20 cells were grown at the restrictive or permissive temperature for 14 hours, methionine-starved for 90 min, and then grown in the methionine-free media supplemented with ^35S-met ([…]) for 90 min.

[1] = In vitro degradation assay with xenopus egg extracts; format: biochemical; conditions: room temperature
Experimental: Xenopus egg extracts were made as is well known in the art and stored frozen until use. Degradation reactions contained 8 μl of egg extract, 0.1 μl of 100 mg/ml cyclohexamide, 0.25 μl of energy regeneration mix, 0.25 μl of bovine ubiquitin, and 0.4 μl of ^35S-radiolabeled HIF and were carried out at room temperature. At the indicated timepoints 1 μl aliquots were removed and placed in sample buffer. Samples were resolved on 5-15% gradient gels and analyzed by autoradiography. Biotinylated HIF (556-575) peptides were incubated with rabbit reticulocyte lysate, washed, eluted with free biotin, and analyzed by mass spectrometry. 1 μg of HPLC-purified peptide was bound to 30 μl monomeric avidin Sepharose and incubated with 100 μl of rabbit reticulocyte lysate at room temperature for 1 hour with tumbling. Following brief centrifugation the reticulocyte lysate was removed, fresh reticulocyte lysate was added, and the cycle was repeated 6 times. The Sepharose was then washed 4 times with NETN and once with PBS. The modified peptide was eluted in 50 μl of 20 mM ammonium acetate [pH 7.0], 2 mM biotin. […] This peak was not detectable prior to incubation with reticulocyte lysate and was not detected in the corresponding reticulocyte-treated Leu562Ala and Pro564Ala peptides (FIG. 6A). […] Following visualization of standards with ninhydrin radiolabeled proline was detected by autoradiography. […]

COS7 cells = test: Anti-HA immunoblot of transiently transfected COS7 cells; format: cell-based
Experimental: (A) depicts in vitro ubiquitination of ^35S-labeled wild-type, Leu562A, and Pro564A Gal4-HA-HIF1α (530-652) in the presence of S100 extracts prepared from pVHL-defective renal carcinoma cells stably transfected to produce wild-type pVHL or with empty vector. […] (C) is an anti-HA immunoblot analysis of COS7 cells transiently transfected with 1.5 or 3.5 μg of plasmids encoding wild-type or P564A HA-HIF1α in the absence or presence of desferoxamine.

pRB = pRB phosphorylation in pRB-defective SAOS-2 cells; format: cell-based, human; conditions: cointroduced with HA-tagged pRB into SAOS-2 cells
Experimental: FIG. 8 illustrates the production of TETr-cyclins A and E. (A) is a schematic of TETr-cyclin fusion protein. […] The % of transfected cells in G1 and S phase was determined by fluororescence activated cell sorting (FACS).
(§1) FIG. 11 illustrates that cyclin box is required for transcriptional repression by DNA bound cyclin A. (A) U2OS cells were cotransfected with plasmids encoding the indicated TETr-cyclin A variants along with the pUHC 13-3 reporter plasmid and a plasmid encoding β-galactosidase. Cell extracts were prepared and luciferase activity, corrected for β-galactosidase activity, was expressed as fold repression relative to cells producing TETr alone. (B) The indicated TETr-cyclin A variants were translated in vitro in the presence of ^35S-methionine and incubated with GST-cdk2 and glutathione Sepharose. […] In parallel, 20% of the input proteins were resolved by SDS-polyacrylamide gel electrophoresis and detected by autoradiography. (c) pRB defective SAOS-2 cells transfected so as to produce HA-tagged pRB along with the indicated TETr-cyclin A variants were lysed and immunoblotted with anti-HA antibody.

[2] = test system: TETo-driven luciferase reporter plasmid (pUHC13-3); test: TETr-fusion transcriptional luciferase reporter gene assay in U2OS cells; format: cell-based, human; conditions: pUHC13-3 reporter
Experimental: (A) is a schematic of reporter plasmid (pUHC 13-3) that contains seven TETracycline operator sequences (TETo) upstream of a minimal CMV promoter that includes a TATA box. (B, C) show U2OS cells were cotransfected with plasmids encoding the indicated TETr fusion proteins along with the pUHC 13-3 reporter plasmid and a plasmid encoding β-galactosidase. Numbers shown at the bottom of the graph indicate the amount of TETr plasmid (in μg). 48 hours later luciferase activity, normalized for β-galactosidase, was determined. Fold repression is the corrected luciferase value for TETr alone divided by the corrected luciferase values for the indicated TETr fusion proteins. Fold activation represents the corrected luciferase values for the indicated TETr fusion proteins divided by the corrected luciferase value for TETr alone. […]
For TETr-fusion transcriptional assay, subconfluent U2OS cells were transiently transfected in 6-well plates in duplicate with 1 μg of […], 1 μg of pUHC13-3 reporter plasmid, and 3 μg of the indicated plasmids encoding TETr-fusion proteins. […] 48 hours after transfection luciferase activity and β-galactosidase activity was determined as described previously (Qin, 1995).

cdk2 = molecular target: T2, cdk2 (Homo sapiens, UniProt P24941); test: GST pull-down assay with GST-cdk2; format: binding; conditions: 35S-labeled in vitro translates
T2 construct: made in house
Experimental: as §1
Glutathione S-transferase pull-down assays were performed basically as described previously (Kaelin et al., 1991). Binding reactions contained 10 μl of ^35S-radiolabelled in vitro translates made with a TNT kit (Promega) and approximately 1 μg of the indicated GST fusion protein in 1 ml of NETN (20 mM Tris [pH 8], 100 mM NaCl, 1 mM EDTA, 0.5% Nonidet P-40). Following 1 hour incubation at 4° C. with rocking, the Sepharose was washed 5 times with NETN. […]

[3] = test system: Hela cells xenograft tumors; test: Imaging of ODD-Luc in xenograft tumors in nude mice; format: in vivo; conditions: subcutaneous Hela tumors, versus Luc sites
Experimental: Polyclonal Hela cells stably transfected with ODD-Luc and Luc were generated. The clones were suspended in PBS and counted. 10^6 cells per injection site were administered subcutaneously in duplicate into the flanks of nude mice (FIG. 18). Upon growth of palpable tumors (approximately 3-4 days) the mice were given intraperitoneal injections of phenobarbital for anesthesia, injected with a weight-adjusted dose of luciferin, and whole body imaged with a Xenogen Camera. To ensure that the difference in luciferase activity was not simply a function of tumor size alone, bidimensional tumor measurements were taken and were approximately equal.

HeLa cells = test: Luciferase activity in transiently transfected HeLa cells; format: cell-based
Experimental: To begin to ask whether the ODD-Luc was oxygen sensitive in cells, transient transfection assays were performed. In the first set of experiments, 100 mm tissue culture plates were seeded with 8×10^5 HeLa cells per plate. Eighteen hours later the cells were transiently transfected, using lipofectamine (Gibco), with the pcDNA3 plasmids encoding ODD-Luc or wild-type Luc along with an internal control plasmid encoding Renilla luciferase. Twenty-four hours after transfection the cells were split into 6 well plates and allowed to adhere and grow for 8-12 hours. At this point the hypoxia mimetics desferrioxamine (DFO) or cobalt chloride (CoCl2) were added directly to the media at final concentrations of 500 μM and 200 μM respectively, in duplicate wells. In addition, some wells were not treated so as to serve as controls. 12 hours after treatment with DFO and CoCl2 the cells were lysed with Passive Lysis Buffer (Promega), rocked at room temperature for 20 minutes, and assayed for Firefly and Renilla Luciferase according to the manufacturers instructions. Results were obtained in duplicate and averaged. (FIG. 17). Luciferase activity in HeLa cells containing pcDNA3 plasmids encoding wild-type Luc are presented in the first three bars from the left; while luciferase activity in HeLa cells containing pcDNA3 plasmids encoding ODD-Luc are presented in the fourth through sixth bars from the left.

[4] = molecular target: T3, pVHL (GST-VHL, elongin B, elongin C complex) (Homo sapiens, UniProt P40337); test: VBC-GST pulldown of 35S-labeled in vitro translated proteins; format: binding
T3 construct: made in house; host or cells: E. coli

[5] = Luciferase activity of in vitro translate; format: biochemical; conditions: versus wild-type luciferase

T3 sequence (P40337 whole entry): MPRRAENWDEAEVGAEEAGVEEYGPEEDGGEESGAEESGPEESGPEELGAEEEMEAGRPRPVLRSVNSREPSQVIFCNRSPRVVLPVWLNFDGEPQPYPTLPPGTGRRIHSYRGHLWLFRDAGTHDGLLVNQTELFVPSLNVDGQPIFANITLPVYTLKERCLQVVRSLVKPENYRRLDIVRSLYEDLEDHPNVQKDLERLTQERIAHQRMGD
T3 sequence (Q15370 whole entry partner): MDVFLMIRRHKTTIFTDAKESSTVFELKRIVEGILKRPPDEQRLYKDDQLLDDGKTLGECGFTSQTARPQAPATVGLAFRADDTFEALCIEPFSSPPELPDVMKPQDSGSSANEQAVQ
T3 sequence (Q15369 whole entry partner): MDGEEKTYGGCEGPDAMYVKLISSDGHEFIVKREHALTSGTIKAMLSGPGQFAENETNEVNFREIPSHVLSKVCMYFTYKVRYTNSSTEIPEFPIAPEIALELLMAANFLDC
T1 sequence (P40337 whole entry): as the sequence (P40337 whole entry) above
T1 sequence (P62869 whole entry partner): as the sequence (Q15370 whole entry partner) above, with D40E, C89R, S110G counted along it
T1 sequence (P83940 whole entry partner): as the sequence (Q15369 whole entry partner) above

With “HIF (556-575) Pro564Ala peptide: HIF (556-575) peptide with Pro564Ala substitution (DLDLEMLAAYIPMDDDFQLR)” the “elution of HIF bound to HA-pVHL” value (HA-pVHL bound HIF) was “not eluted”.
In the case of “HIF1α Leu562Ala: HIF1α with Leu562Ala mutation”, the “stability relative to wild-type HIF1α” value [1] is reported as “far more stable”.
In the case of “HIF1α Pro564Ala: HIF1α with Proline 564 converted to alanine”, the “stability relative to wild-type HIF1α” value [1] is reported as “far more stable” and the “sensitivity to the hypoxia-mimetic desferoxamine” value (COS7 cells) is reported as “insensitive”.
For “Cyclin A (1-310): cyclin A fragment 1-310 fused to TETr”, the pRB phosphorylation (pRB) was “cannot direct the phosphorylation of pRB”, the “transcriptional effect on TETo-driven luciferase reporter” value [2] was “repressed transcription” and the “binding to cdk2” value (cdk2) was “does not bind to cdk2”.
In the case of “ODD-Luc: Firefly luciferase fused in-frame to HIF1α amino acids 555-575 (ODD) (TDLDLEMLAPYIPMDDDFQLR; also: fused to firefly luciferase (not shown))”, the “luciferase signal at injection sites (whole body imaging)” value [3] is reported as “attenuated luciferase signal”, the “induced luciferase levels versus wild-type luciferase” value (HeLa cells; after addition of hypoxia-mimetics) is reported as “comparable” and the “luciferase values relative to wild-type Luc” value (HeLa cells; untreated HeLa cells grown in the presence of oxygen) is reported as “approximately 30%”. The “binding of pVHL (GST-VBC pulldown)” value ([4]; translated in vitro in rabbit reticulocyte lysate) was “bound”, the “binding of pVHL (GST-VBC pulldown)” value ([4]; wheat germ produced) was “did not bind” and the “luciferase activity in vitro” value [5] was “comparable to wild-type luciferase”.
